Results as given in article PMC6368365, “Didehydro-Cortistatin A Inhibits HIV-1 by Specifically Binding to the Unstructured Basic Region of Tat” (mBio, 2019).

Target: T1, intracellular Tat (Human immunodeficiency virus type 1 group M subtype B, UniProt P69697)
T1 construct: pTatC6H-1 (NIH AIDS Reagent Program) plasmid encoding C-terminal 6xHistidine Tat1-86 (HXB3, subtype B); made in house; host or cells: E. coli BL21 (plasmid pTatC6H-1, NIH AIDS Reagent Program)
Assay: Steady state of recombinant Tat in HeLa-CD4-LTR-Luc cells (Western blot)
Format: cell-based, HIV-1
Details: 6 hours with compound, MG132 10 μM
Method: FIG 5 dCA stabilizes Tat structure. (A) Trp fluorescence assays. (Left) Schematic of the assay. (Center) DMSO, dCA (7.5× Tat concentration) or raltegravir (Ralt.; 7.5× Tat concentration) was incubated with Tat. The fluorescence of the Trp^11 of Tat protein was measured at the indicated wavelengths. Acrylamide (250 mM) was used as a quenching control of Tat fluorescence. (Right) Peak absorbance (λmax) versus increasing fold ratios of compounds to Tat protein. Data are representative of n = 3 independent experiments. (B) DARTS assays. Tat was incubated with DMSO or dCA, at increasing concentrations, in the presence of increasing concentrations of proteinase K (PK). […] Data are representative of n = 2 independent experiments. (C) Steady state of Tat in the presence of dCA in vivo. HeLa-CD4-LTR-Luc cells were incubated with recombinant Tat and then washed and incubated with the indicated compounds for 6 hours. […] (Left) Western blot representative of n = 4 independent experiments. MG132 was used as a positive control of Tat protection from degradation, and raltegravir was used as a negative control. (Right) Densitometry of the Tat band normalized to the actin band. Results represent the mean ± SEM from n = 4 independent experiments. Statistical significance was determined using one-way ANOVA with post hoc Tukey’s test. ns, not significant; ***, P < 0.0001; **, P < 0.001.
Next, we determined the half-life of recombinant Tat in HeLa-CD4-LTR-Luc cells in the presence of dCA (Fig. 5C). We incubated recombinant Tat with cells for 4 hours, and after several washes to remove extracellular Tat protein, we incubated cells with DMSO, dCA, or raltegravir for an additional 6 hours. Western blotting with anti-His antibody was performed to reveal intracellular Tat. […]
Half-life of Tat in vivo. […] Total protein concentration was assessed by Bradford assay and Tat protein in each condition determined by western blot with an anti-His antibody at 1:1500 dilution (Thermofisher). […]

T1 sequence (P69697 whole entry): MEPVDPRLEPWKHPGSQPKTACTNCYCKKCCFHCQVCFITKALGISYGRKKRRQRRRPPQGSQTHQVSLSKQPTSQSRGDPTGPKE

With `CN(C)C1CC23CCC4(O2)C(=CCC2(C)C(c5ccc6ccncc6c5)=CCC24)C=C3C(O)C1O` (centres unmarked) [dCA, didehydro-cortistatin A] as the compound, how does the “percentage of remaining Tat” value read?
The value was 40%.

For `Cc1nnc(C(=O)NC(C)(C)c2nc(C(=O)NCc3ccc(F)cc3)c(O)c(=O)n2C)o1` [raltegravir, reference compound], which “percentage of remaining Tat” value is on record?
Its value is 28%.
